# Columns and labels:
# Type in all cases: physicochemical
# Set-up in all cases: key: Crystal: When the formation of active crystals is observed, the term of <> is indicated; Limpid: When the solution remains limpid (absence of solid or cloudiness), it is the term of <> which is indicated
# [1] = Visual observation at 25° C. of formulation of active in solvent
# Procedure: (§1) Formulations were made by diluting various actives, reported below in the table, in the compounds 1-4 synthesized above.
# 1) Visual observation at 25° C.
# The aspect of the formulation is noted and the presence of crystals is possibly located.
# (§2) The actives used are commercially available.
# [2] = Visual observation at 0° C. after 7 days (CIPAC MT39 test); conditions: 7 days at 0° C.
# Procedure: as §1
# 2) Visual observation at 0° C.
# The formulation is placed at 0° C. for 7 days and the aspect of the formulation is noted and the presence of crystals is possibly located (CIPAC MT39 test).
# as §2
# [3] = Visual observation at 0° C. with nucleation (crystal of pure active introduced, 7 more days at 0° C.); conditions: crystal of active added
# Procedure: as §1
# 3) Visual observation at 0° C. with nucleation (by introducing a crystal of the pure active into the liquid)
# A crystal of the active material is introduced into the formulation which has spent 7 days at 0° C. for nucleation, and the formulation is again placed for 7 days at 0° C. The aspect of the formulation is noted and the presence of crystals or the growth of the introduced crystal is possibly located.
# as §2
# [4] = active Alachlor 48% EC in the compound as solvent
# [5] = active Chlorpyrifos 40% EC in the compound as solvent
# [6] = active Difenconazole 25% EC in the compound as solvent
# [7] = active Oxyfluorfen 22% EC in the compound as solvent
# [8] = active Propanil 36% EC in the compound as solvent
# [9] = active Trifluralin 40% EC in the compound as solvent
# [10] = active Azoxystrobine 25% EC in the compound as solvent
# [11] = active Dimethoate 40% EC in the compound as solvent
# [12] = active Pendimethalin 33% EC in the compound as solvent
# [13] = active Phenmedipham 16% EC in the compound as solvent
# [14] = active Propuxur 20% EC in the compound as solvent
# [15] = active Tebuconazole 25% EC in the compound as solvent
# [16] = active alpha-Cypermethrin 10% EC in the compound as solvent
Compound,"Aspect at 25° C. [1, 4]","Aspect at 25° C. [1, 5]","Aspect at 25° C. [1, 6]","Aspect at 25° C. [1, 7]","Aspect at 25° C. [1, 8]","Aspect at 25° C. [1, 9]","Aspect at 0° C. [2, 4]","Aspect at 0° C. [2, 5]","Aspect at 0° C. [2, 6]","Aspect at 0° C. [2, 7]","Aspect at 0° C. [2, 8]","Aspect at 0° C. [2, 9]","Aspect at 0° C. with nucleation [3, 4]","Aspect at 0° C. with nucleation [3, 6]","Aspect at 0° C. with nucleation [3, 9]","Aspect at 25° C. [1, 11]","Aspect at 25° C. [1, 12]","Aspect at 25° C. [1, 14]","Aspect at 25° C. [1, 16]","Aspect at 0° C. [2, 11]",also measured
"CCCCCCCCCCOC(=O)C(=O)N(C)C [Compound 4, n-decyl 2-(dimethylamino)-2-oxoacetate]",Limpid,Limpid,Limpid,Limpid,Limpid,Limpid,Limpid,Crystal,Limpid,Crystal,Crystal,Limpid,Limpid,Limpid,Limpid,,,,,,
"CCOC(=O)C(=O)N(C)C [Compound 2, ethyl 2-(dimethylamino)-2-oxoacetate]",Limpid,Limpid,Limpid,Limpid,Limpid,Limpid,Limpid,Limpid,Limpid,Limpid,Limpid,Limpid,Limpid,Limpid,Limpid,Limpid,Limpid,Limpid,Limpid,Limpid,"Aspect at 25° C. [1, 10]: Limpid; Aspect at 25° C. [1, 13]: Limpid; Aspect at 25° C. [1, 15]: Limpid; Aspect at 0° C. [2, 10]: Crystal; Aspect at 0° C. [2, 12]: Crystal; Aspect at 0° C. [2, 13]: Limpid; Aspect at 0° C. [2, 14]: Crystal; Aspect at 0° C. [2, 15]: Crystal; Aspect at 0° C. [2, 16]: Limpid; Aspect at 0° C. with nucleation [3, 5]: Limpid; Aspect at 0° C. with nucleation [3, 11]: Crystal; Aspect at 0° C. with nucleation [3, 7]: Limpid; Aspect at 0° C. with nucleation [3, 13]: Limpid; Aspect at 0° C. with nucleation [3, 8]: Limpid; Aspect at 0° C. with nucleation [3, 16]: Limpid"
"CCCCC(CC)COC(=O)C(=O)N(C)C (centres unmarked) [Compound 3, 2-ethyl-hexyl 2-(dimethylamino)-2-oxoacetate]",Limpid,Limpid,Limpid,Limpid,Limpid,Limpid,Limpid,Limpid,Limpid,Limpid,Limpid,Limpid,Limpid,Limpid,Limpid,Limpid,Limpid,Limpid,Limpid,Crystal,"Aspect at 0° C. [2, 12]: Crystal; Aspect at 0° C. [2, 14]: Crystal; Aspect at 0° C. [2, 16]: Limpid; Aspect at 0° C. with nucleation [3, 5]: Limpid; Aspect at 0° C. with nucleation [3, 7]: Crystal; Aspect at 0° C. with nucleation [3, 8]: Limpid; Aspect at 0° C. with nucleation [3, 16]: Limpid"
"COC(=O)C(=O)N(C)C [Compound 1, methyl 2-(dimethylamino)-2-oxoacetate]",Limpid,,Limpid,Limpid,Limpid,Limpid,Limpid,,Limpid,Crystal,Limpid,Crystal,Limpid,Limpid,,Limpid,Limpid,Limpid,Limpid,Crystal,"Aspect at 25° C. [1, 10]: Limpid; Aspect at 25° C. [1, 13]: Limpid; Aspect at 25° C. [1, 15]: Limpid; Aspect at 0° C. [2, 10]: Crystal; Aspect at 0° C. [2, 12]: Crystal; Aspect at 0° C. [2, 13]: Limpid; Aspect at 0° C. [2, 14]: Limpid; Aspect at 0° C. [2, 15]: Crystal; Aspect at 0° C. [2, 16]: Limpid; Aspect at 0° C. with nucleation [3, 13]: Limpid; Aspect at 0° C. with nucleation [3, 8]: Limpid; Aspect at 0° C. with nucleation [3, 14]: Limpid; Aspect at 0° C. with nucleation [3, 16]: Limpid"
